# Assay results from ChEMBL document CHEMBL1124317, “Rationale for the synthesis and preliminary biological evaluation of highly active new antitumor nitrosoureido sugars” (J Med Chem, 1989).
# Tests used:
# [1] = tested on: Mus musculus; test: The number of B16 melanocarcinoma mice survived after 60 days with compound in olive oil injected by a dose of 20 mg/kg intraperitoneally; 2/20; assay type: functional; settings: route intraperitoneal
# [2] = tested on: Mus musculus; test: Anti tumor activity in olive oil when treated to mice with B16 melanocarcinoma with 20 mg/kg dose of compound intraperitoneally was expressed as percent of treated to control (T/C %); assay type: functional; settings: route intraperitoneal
# [3] = tested on: Mus musculus; test: The number of B16 melanocarcinoma mice survived after 30 days with compound in olive oil injected by a dose of 20 mg/kg intraperitoneally; 13/20; assay type: functional; settings: route intraperitoneal
# [4] = tested on: Mus musculus; test: The number of Lewis lung mice survived after 30 days with compound in olive oil injected by a dose of 20 mg/kg intraperitoneally; 18/20; assay type: functional; settings: route intraperitoneal
# [5] = tested on: Mus musculus; test: The number of Lewis lung mice survived after 60 days with compound in olive oil injected by a dose of 20 mg/kg intraperitoneally; 15/20; assay type: functional; settings: route intraperitoneal
# [6] = tested on: Mus musculus; test: The number of L1210 Leukemia mice survived after 60 days with compound in olive oil injected by a dose of 20 mg/kg intraperitoneally; 10/15; assay type: functional; settings: route intraperitoneal
# [7] = organism: Mus musculus; test: Median survival time of the non surviving mice; there are two deaths on day 27, one death on day 29, and two deaths on day 41; assay type: functional, organism-based
# [8] = tested on: Mus musculus; test: Median survival time of the non surviving mice; treated with 20 mg/kg of compound in olive oil to mice with B16 Melanocarcinoma; 14-55; assay type: functional
# [9] = tested on: Mus musculus; test: Ratio of mice died to that of mice treated with 20 mg/kg of compound in olive oil intraperitoneally with B16 Melanocarcinoma; 0/20; assay type: functional; settings: route intraperitoneal
# [10] = tested on: Mus musculus; test: Ratio of mice died to that of mice treated with 20 mg/kg of compound in olive oil intraperitoneally with L1210 leukemia tumor; 0/15; assay type: functional; settings: route intraperitoneal
# [11] = tested on: Mus musculus; test: Ratio of mice died to that of mice treated with 20 mg/kg of compound in olive oil intraperitoneally with Lewis lung; 0/20; assay type: functional; settings: route intraperitoneal
# [12] = tested on: Mus musculus; test: The number of L1210 Leukemia mice survived after 30 days with compound in olive oil injected by a dose of 20 mg/kg intraperitoneally; 12/15; assay type: functional; settings: route intraperitoneal
smiles,measurement,setting,value
COC1CC(NC(=O)N(CCCl)N=O)C(O)C(CNC(=O)N(CCCl)N=O)O1 (configuration not stated),Survivals,[1],2
same,T/C,[2],225%
same,Survivals,[3],13
same,Survivals,[4],18
same,Survivals,[5],15
same,Survivals,[6],10
same,Median survival time,[7],"there are two deaths on day 27, one death on day 29, and two deaths on day 41"
same,Median survival time,[8],31.37
same,Ratio,[9],0
same,Ratio,[10],0
same,Ratio,[11],0
same,Survivals,[12],12
